# Test results reported in PubChem BioAssay (NCI).
#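 Cultured in 96-well plates, cells were exposed to test compound for 48 hours across five concentrations. GI50 = concentration required for 50% inhibition of growth. TGI: total growth inhibition.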
# Assays:
# Assay in all cases: growth of human tumour cells (NCI), 48 h
# [1] = system: SNB-75 CNS
# [2] = system: LOX IMVI melanoma
# [3] = system: SF-268 CNS
# [4] = system: A498 renal
# [5] = system: PC-3 prostate
# [6] = system: HL-60(TB) leukemia
# [7] = system: OVCAR-8 ovarian
# [8] = system: M14 melanoma
# [9] = system: TK-10 renal
# [10] = system: NCI-H226 lung
Compound,GI50 [1] [µM],TGI [1] [µM],GI50 [2] [µM],TGI [2] [µM],GI50 [3] [µM],TGI [3] [µM],GI50 [4] [µM],TGI [4] [µM],GI50 [5] [µM],TGI [5] [µM],GI50 [6] [µM],TGI [6] [µM],GI50 [7] [µM],TGI [7] [µM],GI50 [8] [µM],TGI [8] [µM],GI50 [9] [µM],TGI [9] [µM],GI50 [10] [µM],TGI [10] [µM]
O=C(Nc1cccc(C(F)(F)F)c1)c1cc2ccccc2cc1O,2.25,> 39.7,1.92,14.3,2.7,> 100,0.919,7.4,1.93,> 25.6,1.15,12.1,3.7,> 31.3,3.26,48.7,3.97,> 41.4,2.22,> 100
O=C(/C=C/c1cccc2ccccc12)Nc1ncc(Cc2ccccc2)s1,0.344,1.55,0.445,11,2.61,> 100,0.189,0.72,1.01,> 100,0.669,3.58,1.55,> 100,0.649,3.79,1.69,4.87,1.37,> 100
COc1cc2c(cc1OCCCOc1ccc(-c3nc4ccc(N5CCN(C)CC5)cc4[nH]3)cc1)N=C[C@@H]1CCCN1C2=O,< 0.01,11.8,< 0.01,1.58,< 0.01,,< 0.01,< 0.01,< 0.01,< 0.01,< 0.01,< 0.01,< 0.01,< 0.01,< 0.01,< 0.01,< 0.01,0.492,< 0.01,< 0.01
COc1ccc(C2=Nc3c/c(=C\c4c(O)[nH]c5cc(Cl)ccc45)ccc3=N2)cc1,3.1,14.2,,,12.9,32.4,5.24,> 100,3.18,28.9,1.97,4.84,7.68,22.8,4.17,21.6,21,39.3,> 100,> 100
CCCCCCCCCCSC(=N)N,1.79,4.44,2.76,9.37,4.2,17,4.69,19.3,4.76,17.5,,,4.17,19.2,1.89,3.57,1.61,4.09,6.09,23.2
Cc1ccc(-c2n[nH]c(=O)c3noc(-c4ccc(C)cc4)c23)cc1,,,0.677,> 100,2.21,27.7,1.27,6.71,2.07,> 100,0.31,> 100,1.82,27.7,0.422,> 100,2.35,14.2,6.88,> 100
CN=C(N)N/N=C(\C)c1ccc2c(c1)Cc1ccccc1-2,2,7.01,,,2.13,5.25,2.89,9.21,2.39,10.3,0.399,1.94,,,1.65,3.02,3.18,14.8,,
Cc1cc2nc(-c3c(F)cccc3Cl)n(Cc3c(F)cccc3Cl)c2cc1C,45.5,> 100,13.5,30.2,11,31.7,15.5,32.2,3.44,12.6,,,18.9,46.6,11.5,26.7,15.1,46.5,15,38.3
CCN(CC)Cc1cc(Nc2c3ccccc3nc3cc(Cl)ccc23)ccc1O,1.6,2.97,,,1.63,3.13,1.73,3.29,1.59,3.26,,,1.18,3.83,1.76,3.18,1.64,3.23,1.66,3.23
Cn1cc(NC(=O)Nc2cc(C(=O)Nc3cc(C(=O)Nc4cc(S(=O)(=O)O)c5cc(S(=O)(=O)O)cc(S(=O)(=O)O)c5c4)n(C)c3)n(C)c2)cc1C(=O)Nc1cc(C(=O)Nc2cc(S(=O)(=O)O)c3cc(S(=O)(=O)O)cc(S(=O)(=O)O)c3c2)n(C)c1,,> 100,,,,> 100,,,,> 100,,> 100,,> 100,,> 100,,> 100,,> 100
NNC(=O)C(O)C(O)C(=O)NN (stereo not given),,> 100,,> 100,,> 100,,> 100,,> 100,,,,> 100,,> 100,,> 100,,> 100
O=C(/C=C/c1ccccc1)CCC1C(=O)NC(=S)NC1=O,,,,> 100,,> 100,,> 100,,> 100,,,,> 100,,> 100,,,,> 100
O=Cc1ccc(N2CCN(c3ccc(C=O)cc3)CC2)cc1,> 100,> 100,> 100,> 100,> 100,> 100,,,> 100,> 100,> 100,> 100,> 100,> 100,> 100,> 100,4.13,76.8,1.65,4.12
H-QIYKKYRTWYRKAWKVLGKV-NH2,6.06,22.5,23.7,> 100,3.99,30.5,,,3.82,20,2.84,8.76,3.8,> 100,3.06,14.1,6.35,29.8,12.4,58.7
O=C(O)CCc1nc(-c2ccccc2-n2cccc2)no1,,> 100,,> 100,,> 100,,> 100,,> 100,,,,> 100,,> 100,,> 100,,> 100
